The values that follow come from paper PMC4742142, “Identification of novel, in vivo active Chk1 inhibitors utilizing structure guided drug design” (Oncotarget, 2015).

Structures are written as SMILES. Bounds are passed on as bounds.

Test [1] has as its system A549. Briefly: Potentiation assay (MTS, 72 hours). The note with it: IC50(cytotoxic agent alone) / IC50(combination treatment). Type of test: cell-based, human. The protocol:
(§1) 5 × 10^3 cells per well were seeded in 96-well plates and incubated overnight. […] The effect on cell proliferation was determined using a CellTiter 96 AQueous One Solution Cell Proliferation Assay (MTS, Promega).

Test [2] has as its system Colo205. As to the kind of experiment: Potentiation assay (MTS, 72 hours). The conditions noted are these: IC50(cytotoxic agent alone) / IC50(combination treatment). Type of test: cell-based, human. The protocol:
as §1

Test [3] concerns H460. Briefly: Potentiation assay (MTS, 72 hours). Type of test: cell-based, human. The note with it: IC50(cytotoxic agent alone) / IC50(combination treatment). The method, then: as §1
The subject of test [4] is HCT116. Briefly: Potentiation assay (MTS, 72 hours). The class given is cell-based, human. The note with it: IC50(cytotoxic agent alone) / IC50(combination treatment). The protocol:
as §1

Test [5] concerns HT29. As to the kind of experiment: Potentiation assay (MTS, 72 hours). The class given is cell-based, human. The note with it: IC50(cytotoxic agent alone) / IC50(combination treatment). The method, then:
as §1

Test [6] deals with NCI-H520. As to the kind of experiment: Potentiation assay (MTS, 72 hours). The conditions noted are these: IC50(cytotoxic agent alone) / IC50(combination treatment). The class given is cell-based, human. The method, then:
as §1

The subject of test [7] is PC3. As to the kind of experiment: Potentiation assay (MTS, 72 hours). The class given is cell-based, human. The note with it: IC50(cytotoxic agent alone) / IC50(combination treatment). The method, then: as §1
The subject of test [8] is SW620. Briefly: Potentiation assay (MTS, 72 hours). The conditions noted are these: IC50(cytotoxic agent alone) / IC50(combination treatment). The class given is cell-based, human. The protocol: as §1
Test [9] concerns the target T1, Chk1 (Homo sapiens, UniProt O14757).
T1 sequence (O14757 1-476): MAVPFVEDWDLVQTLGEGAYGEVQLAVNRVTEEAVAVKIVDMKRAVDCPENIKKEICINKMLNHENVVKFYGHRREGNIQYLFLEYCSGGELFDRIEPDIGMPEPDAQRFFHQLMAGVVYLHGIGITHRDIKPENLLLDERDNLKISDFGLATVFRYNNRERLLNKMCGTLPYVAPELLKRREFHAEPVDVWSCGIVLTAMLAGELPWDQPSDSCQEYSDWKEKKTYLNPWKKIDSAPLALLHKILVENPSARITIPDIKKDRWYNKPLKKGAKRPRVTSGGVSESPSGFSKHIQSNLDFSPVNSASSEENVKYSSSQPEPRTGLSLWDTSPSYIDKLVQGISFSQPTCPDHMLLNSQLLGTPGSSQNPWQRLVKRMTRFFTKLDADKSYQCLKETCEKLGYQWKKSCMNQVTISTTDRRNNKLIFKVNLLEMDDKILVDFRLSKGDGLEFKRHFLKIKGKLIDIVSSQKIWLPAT
As to the kind of experiment: In vitro kinase assay, Chk1. The note with it: for LE: ligand efficiency, Chk1. Type of test: biochemical. The protocol:
Kinase assays were performed as previously described.

Test [10] deals with Colo205 xenografts. Briefly: Colo205 xenograft antitumor efficacy. The note with it: Colo205, 75 mg/kg IP irinotecan alone (V158411 0 mg/kg). The class given is in vivo. The text has this:
(§2) Xenograft studies were undertaken by Charles River Laboratories Discovery Services, North Carolina. On the day of tumor cell implant, Colo205 cells were harvested and resuspended in 50% Matrigel matrix (BD Biosciences) in PBS at a concentration of 5 × 10^6 cells/mL. Each test mouse received 1 × 10^6 Colo205 cells implanted subcutaneously (SC) in the flank of female athymic nude mice (HRLN or NCr nu/nu), and tumor growth was monitored as the average size approached 100-150 mm^3. The SW620 tumor line was maintained by serial SC transplantation in female athymic nude mice (HRLN nu/nu). Tumor fragments, approximately 1 mm^3 each, were implanted SC into the right flank of each animal and allowed to grow towards a target size of 100-150 mm^3. On day 1 of the study, tumors were randomized into treatment groups before compound administration.
(§3) V158411 was formulated in D5W and administered via IV injection into the tail vein. Cyclic treatment regimens were followed and treatment ranged from 2-3 cycles.
(§4) Tumor size was measured with electronic calipers and tumor volume calculated according to the formula ((width × width) × length) /2.
(§5) The study endpoint was defined as a tumor volume of 750 mm^3 for Colo205 or 1500 mm^3 for SW620, or day 60, whichever came first. Each animal was euthanized when its' tumor reached this endpoint. The time to endpoint (TTE) for each mouse was calculated from the equation TTE = (log10(endpoint volume)-b)/m where b is the intercept and m the slope of the line obtained by linear regression of a log-transformed tumor growth data set.

Test [11] deals with SW620 xenograft. Briefly: SW620 xenograft antitumor efficacy. The conditions noted are these: for Median TTE: SW620, 100 mg/kg irinotecan alone (V158411 0 mg/kg); for %TGD / T-C: SW620, 100 mg/kg irinotecan alone.
Text: as §2, §3, §4, §5

Regarding `Nc1ccn([C@@H]2O[C@H](CO)[C@@H](O)C2(F)F)c(=O)n1` [Gemcitabine], the “Fold Potentiation by V158411 (400nM)” value amounted to 4.5 fold in [1]; 8.4 fold in test [2]; 4.5 fold in test [3]; 1.5 fold in test [4]; 27.1 fold in test [5]; 8.9 fold in test [6]. Besides, the “Fold Potentiation by V158411 (400nM)” value in test [7] worked out at 6.7 fold; in test [8], 3.0 fold.

The IC50 is the point on the concentration scale where inhibition reaches its midpoint. A low value points to greater potency. Turning to `Cn1cc(NC(=O)c2c[nH]c(=O)c(-c3cc4ccccc4[nH]3)c2)cn1` [VER-155175], in test [9], the “Chk1 IC50” value is given as “disappointing affinity” and the IC50 was above 400 µM.

In test [9], `O=c1[nH]cccc1-c1nc2ccccc2[nH]1` [VER-154637] returned an IC50 of around 100 µM and an LE above 0.30.

In test [9], `O=C(Nc1c[nH]c(=O)c(-c2cc3ccccc3[nH]2)c1)c1cnn(Cc2ccccc2)c1` [VER-155991] registered an IC50 of 0.0076 µM. Moreover, in [9] (Chk1 IC50, inversion of the amide linker, versus VER-155422), the increase in potency was 2 fold.

As for `CC[C@@]1(O)C(=O)OCc2c1cc1n(c2=O)Cc2cc3ccccc3nc2-1` [Camptothecin], the “Fold Potentiation by V158411 (400nM)” value in test [1] turned out to be 0.7 fold; in test [2], 6.0 fold; in test [3], 0.8 fold; in test [4], 0.8 fold; in [5], 11.4 fold; in [6], 1.8 fold. Moreover, the “Fold Potentiation by V158411 (400nM)” value in test [7] is 6.3 fold; in test [8], 10.6 fold.

As for `CCc1c2c(nc3ccc(O)cc13)-c1cc3c(c(=O)n1C2)COC(=O)[C@]3(O)CC` [SN38], the “Fold Potentiation by V158411 (400nM)” value is above 10 fold in test [2]; 1.0 fold in test [3]; 1.3 fold in test [4]; 18.7 fold in test [5]; above 10 fold in test [7]; 7.6 fold in [8].

With `N.N.[Cl][Pt][Cl]` [Cisplatin], the “Fold Potentiation by V158411 (400nM)” value is given as 0.8 fold in [1]; 5.3 fold in [2]; 0.7 fold in test [3]; 0.6 fold in test [4]; 10.1 fold in [5]; 1.9 fold in [6]. The “Fold Potentiation by V158411 (400nM)” value was found to be 1.7 fold in test [7] and 2.5 fold in test [8].

In the case of `CCc1c2c(nc3ccc(OC(=O)N4CCC(N5CCCCC5)CC4)cc13)-c1cc3c(c(=O)n1C2)COC(=O)[C@]3(O)CC` [Irinotecan, reference compound], the “%TGD” value stood at 78% in [10], 81% in test [11] (study with 30 mg/kg V158411) and 75% in [11] (study with 60 mg/kg V158411). The values for the T-C in test [10], in test [11] (study with 30 mg/kg V158411) and in [11] (study with 60 mg/kg V158411) were 15.5, 10.8 and 10.3, respectively. The “Median TTE” value in [10] (q7d 3 cycles, endpoint 750 mm^3) came to 35.4 days; in [11] (study with 30 mg/kg V158411, endpoint 1500 mm^3), 24.1 days; in test [11] (study with 60 mg/kg V158411, endpoint 1500 mm^3), 24.1 days.

Consider `CCNC(=O)c1c[nH]c(=O)c(-c2cc3ccccc3[nH]2)c1` [VER-154931], for which, in test [9], the “Chk1 IC50” value is “low μM inhibitor” and the IC50 worked out at 4.2 µM.

For `O=C(Nc1cnn(Cc2ccccc2)c1)c1c[nH]c(=O)c(-c2cc3ccccc3[nH]2)c1` [VER-155422], in [9], the IC50 is 0.017 µM and the LE was 0.35.
